{"source": "ChEMBL document CHEMBL5678796", "about": "“A highly potent and selective farnesyltransferase inhibitor ABT-100 in preclinical studies” (Anticancer Drugs, 2005)", "key": {"[1]": {"assay": "Inhibition of FTase in human HCT-116 cells expressing low level of P-gp1 using Ras as substrate assessed as inhibition of substrate post-translation processing in presence of 20% human serum by immunoblot analysis", "format": "cell-based"}, "HCT-116 [2]": {"system": "HCT-116", "assay": "Antitumor activity against human HCT-116 cells xenografted in nu/nu CD1 mouse assessed as tumor volume at 100 mg/kg, sc preinoculated with cells for 5 days followed by once every 2 days compound administration for 11 times and measured on day 22 (reference value: 1557 +/- 370 mm^3)", "format": "functional", "details": "time 22 day"}, "[3]": {"assay": "Clearance in rat at 5 mg/kg, iv", "format": "ADME, organism-based", "details": "in vivo"}, "Bos taurus": {"species": "Bos taurus", "assay": "Selectivity index, ratio of IC50 for inhibition of bovine GGTase 1 to IC50 for inhibition of recombinant bovine FTase"}, "[4]": {"assay": "Inhibition of recombinant human FTase incubated for 30 mins in presence of [3H]FPP by SPA based Topcount scintillation plate reader analysis"}, "[5]": {"assay": "Inhibition of recombinant bovine GGTase I incubated for 30 min sin presence of [3H]FPP by SPA based Topcount scintillation plate reader analysis", "set-up": "species or system Bos taurus"}, "[6]": {"assay": "Clearance in dog at 2.5 mg/kg, iv", "format": "ADME, organism-based, Canis lupus familiaris", "details": "in vivo"}, "[7]": {"assay": "AUC in rat at 5 mg/kg, iv", "format": "ADME, organism-based", "details": "in vivo"}, "[8]": {"assay": "Half-life in rat at 5 mg/kg, iv", "format": "ADME, organism-based", "details": "in vivo"}, "[9]": {"assay": "AUC in dog at 2.5 mg/kg, iv", "format": "ADME, organism-based, Canis lupus familiaris", "details": "in vivo"}, "[10]": {"assay": "Inhibition of FTase in human HCT-15 cells expressing high level of P-gp1 using Ras as substrate assessed as inhibition of substrate post-translation processing in presence of 10% FBS by immunoblot analysis", "format": "cell-based"}, "[11]": {"assay": "AUC in dog at 2.5 mg/kg, po", "format": "ADME, organism-based, Canis lupus familiaris", "details": "in vivo"}, "[12]": {"assay": "Half-life in dog at 2.5 mg/kg, iv", "format": "ADME, organism-based, Canis lupus familiaris", "details": "in vivo"}, "[13]": {"assay": "Inhibition of FTase in human HCT-116 cells expressing low level of P-gp1 using Ras as substrate assessed as inhibition of substrate post-translation processing in presence of 10% FBS by immunoblot analysis", "format": "cell-based"}, "HCT-116 [14]": {"system": "HCT-116", "assay": "Antitumor activity against human HCT-116 cells xenografted in nu/nu CD1 mouse assessed as increase in life span at 50 mg/kg, sc preinoculated with cells for 14 days followed by once daily compound administration for 21 days and measured on day 40 relative to vehicle in time to 1 cm^3 tumor", "format": "functional", "details": "HCT-116, 960 h, time 40 day"}, "HCT-116 [15]": {"system": "HCT-116", "assay": "Inhibition of anchorage-independent growth in human HCT-116 cells assessed as inhibition of colony formation incubated for 14 days in presence of 10% FBS by imaging based soft agar colony formation assay", "format": "functional, cell-based"}, "HCT-116 [16]": {"system": "HCT-116", "assay": "Antitumor activity against human HCT-116 cells xenografted in nu/nu CD1 mouse assessed as increase in life span at 25 mg/kg, sc preinoculated with cells for 5 days followed by once daily compound administration for 21 days and measured on day 25 relative to vehicle in time to 1 cm^3 tumor", "format": "functional", "details": "HCT-116, 600 h, time 25 day"}, "[17]": {"assay": "AUC in rat at 5 mg/kg, po", "format": "ADME, organism-based", "details": "in vivo"}, "HCT-116 [18]": {"system": "HCT-116", "assay": "Antitumor activity against human HCT-116 cells xenografted in nu/nu CD1 mouse assessed as reduction in tumor volume by measuring test to control ratio at 50 mg/kg, sc preinoculated with cells for 14 days followed by once daily compound administration for 21 days and measured on day 40", "format": "functional", "details": "time 40 day"}, "Mus musculus [19]": {"system": "Mus musculus", "assay": "Antiangiogenic activity in human recombinant VEGF-stimulated CF1 mouse corneal model assessed as inhibition of new blood growth area at 100 mg/kg, sc prestimulated with VEGF followed by compound administration and measured on day 7 by slit lamp biomicroscopic analysis relative to control", "format": "functional", "details": "CF1, 168 h, time 7 day"}, "HCT-116 [20]": {"system": "HCT-116", "assay": "Inhibition of VEGF secretion in human HCT-116 cells incubated for 72 hrs by ELISA", "format": "functional, cell-based", "details": "dose 0.1-3 µmol/L"}, "HCT-116 [21]": {"system": "HCT-116", "assay": "Antitumor activity against human HCT-116 cells xenografted in nu/nu CD1 mouse assessed as tumor volume at 25 mg/kg, sc preinoculated with cells for 5 days followed by once daily compound administration for 21 days and measured on day 25 (reference value: 1569 +/- 165 mm^3)", "format": "functional", "details": "time 25 day"}, "[22]": {"assay": "Cmax in rat at 25 mg/kg, po", "format": "ADME, organism-based", "details": "in vivo"}, "[23]": {"assay": "Ratio of EC50 for inhibition of FTase in human HCT-116 cells expressing low level of P-gp1 using Ras as substrate assessed as inhibition of substrate post-translation processing in presence of 20% human serum to EC50 for inhibition of FTase in human HCT-116 cells expressing low level of P-gp1 using Ras as substrate assessed as inhibition of substrate post-translation processing in presence of 10% …", "details": "condition cancer"}, "Mus musculus [24]": {"system": "Mus musculus", "assay": "Antiangiogenic activity in human recombinant VEGF-stimulated CF1 mouse corneal model assessed as inhibition of new blood growth area at 50 mg/kg, sc prestimulated with VEGF followed by compound administration and measured on day 7 by slit lamp biomicroscopic analysis relative to control", "format": "functional", "details": "CF1, 168 h, time 7 day"}, "[25]": {"assay": "Inhibition of FTase in human HCT-15 cells expressing high level of P-gp1 using Ras as substrate assessed as inhibition of substrate post-translation processing in presence of 20% human serum by immunoblot analysis", "format": "cell-based"}, "[26]": {"assay": "Inhibition of GGTase in H-Ras transformed mouse NIH3T3 cells using Rap 1A as substrate assessed as inhibition of substrate prenylation in presence of 10% bovine serum by immunoblot analysis", "format": "cell-based"}, "HCT-116 [27]": {"system": "HCT-116", "assay": "Antitumor activity against human HCT-116 cells xenografted in nu/nu CD1 mouse assessed as reduction in tumor volume by measuring tumor to control ratio at 12.5 mg/kg, sc preinoculated with cells for 5 days followed by once daily compound administration for 21 days and measured on day 25", "format": "functional", "details": "time 25 day"}, "[28]": {"assay": "Inhibition of FTase in human DLD-1 cells expressing moderate level of P-gp1 using Ras as substrate assessed as inhibition of substrate post-translation processing in presence of 10% FBS by immunoblot analysis", "format": "cell-based"}, "Mus musculus [29]": {"system": "Mus musculus", "assay": "Antiangiogenic activity in human recombinant VEGF-stimulated CF1 mouse corneal model assessed as inhibition of new blood growth area at 25 mg/kg, sc prestimulated with VEGF followed by compound administration and measured on day 7 by slit lamp biomicroscopic analysis relative to control", "format": "functional", "details": "CF1, 168 h, time 7 day"}}}
{"molecule": "Cn1cncc1[C@](O)(COc1ccc(C#N)cc1-c1ccc(OC(F)(F)F)cc1)c1ccc(C#N)cc1", "note": "[ABT-100]", "values": [{"measurement": "EC50", "setting": "[1]", "result": 1.7, "unit": "nM"}, {"measurement": "Activity", "setting": "HCT-116 [2]", "result": 691, "unit": "mm3"}, {"measurement": "clearance", "setting": "[3]", "result": 16.7, "unit": "mL/min/kg"}, {"measurement": "Ratio IC50", "setting": "Bos taurus", "result": "> 100000"}, {"measurement": "IC50", "setting": "[4]", "result": 0.05, "unit": "nM"}, {"measurement": "IC50", "setting": "[5]", "result": "> 10000", "unit": "nM"}, {"measurement": "clearance", "setting": "[6]", "result": 5.67, "unit": "mL/min/kg"}, {"measurement": "AUC", "setting": "[7]", "result": 3010, "unit": "ng·h/mL"}, {"measurement": "half-life", "setting": "[8]", "result": 2.3, "unit": "h"}, {"measurement": "AUC", "setting": "[9]", "result": 7700, "unit": "ng·h/mL"}, {"measurement": "EC50", "setting": "[10]", "result": 0.2, "unit": "nM"}, {"measurement": "AUC", "setting": "[11]", "result": 2840, "unit": "ng·h/mL"}, {"measurement": "half-life", "setting": "[12]", "result": 6.8, "unit": "h"}, {"measurement": "EC50", "setting": "[13]", "result": 0.43, "unit": "nM"}, {"measurement": "ILS at 50 mg/kg", "setting": "HCT-116 [14]", "result": 52, "unit": "%"}, {"measurement": "EC50", "setting": "HCT-116 [15]; HCT-116, 336 h", "result": 6.1, "unit": "nM"}, {"measurement": "inhibition", "setting": "HCT-116 [15]; time 14.0 day", "result": "Dose-Dependent Effect"}, {"measurement": "ILS at 25 mg/kg", "setting": "HCT-116 [16]", "result": 100, "unit": "%"}, {"measurement": "AUC", "setting": "[17]", "result": 450, "unit": "ng·h/mL"}, {"measurement": "T/C", "setting": "HCT-116 [18]", "result": 45, "unit": "%"}, {"measurement": "inhibition in vivo at 100 mg/kg", "setting": "Mus musculus [19]", "result": 39, "unit": "%"}, {"measurement": "inhibition", "setting": "HCT-116 [20]", "result": "Dose-Dependent Effect"}, {"measurement": "Activity", "setting": "HCT-116 [21]", "result": 553, "unit": "mm3"}, {"measurement": "Cmax", "setting": "[22]", "result": 740, "unit": "ng/mL"}, {"measurement": "Ratio EC50", "setting": "[23]", "result": 1.5}, {"measurement": "inhibition in vivo at 50 mg/kg", "setting": "Mus musculus [24]", "result": 25, "unit": "%"}, {"measurement": "EC50", "setting": "[25]", "result": 1.1, "unit": "nM"}, {"measurement": "EC50", "setting": "[26]", "result": "> 30000", "unit": "nM"}, {"measurement": "T/C", "setting": "HCT-116 [27]", "result": 39, "unit": "%"}, {"measurement": "EC50", "setting": "[28]", "result": 0.26, "unit": "nM"}, {"measurement": "inhibition in vivo at 25 mg/kg", "setting": "Mus musculus [29]", "result": 8, "unit": "%"}]}
